According to EP4721767A1 (priority 2023, dated 2024):

What was measured:
[1] = test system: NCI-N87 human gastric cancer cells; experiment: cells; assay type: cell-based; details: NCI-N87, killing 4 days; for EC50: Homo sapiens, NCI-N87, 96 h
Experimental: (§1) KB oral epithelial cancer cells (purchased from: ATCC) were cultured in DMEM medium supplemented with 10% FBS; NCI-N87 human gastric cancer cells (purchased from: ATCC) were cultured in RPMI1640 medium supplemented with 10% FBS; HT29 human colon cancer cells (purchased from: ATCC) were cultured in RPMI1640 medium supplemented with 10% FBS; and BxPC-3 human pancreatic adenocarcinoma cells (purchased from: ATCC) were cultured in RPMI1640 medium supplemented with 10% FBS.
(§2) Using corresponding media described above and in cell plates, the density of KB cells was adjusted to 2×10^4/mL; the density of NCI-N87 cells was adjusted to 5×10^4/mL; the density of HT29 cells was adjusted to 5×10^4/mL, and the cells were plated onto 96-well transparent flat bottom plates, at 100 µL/well, and cultured overnight; and the density of BxPC-3 cells was adjusted to 5×10^4/mL.
(§3) Samples to be detected were diluted to 20 µM with corresponding media, then 5-fold gradient dilution was performed, and 9 concentrations were obtained. A well having cells but with no any sample added was set as the well showing maximum cell growth; and a well having no cells was set as the well of medium background. The diluted samples were added into the cell plates, at 100 µL/well, which were then incubated in a CO2 incubator for 96 hours.
(§4) Data obtained was fitted to a four-parameter curve using software Prism7, and equation for calculating maximum killing is: maximum killing (%) = 1 - (OD450 value of the well showing maximum killing - OD450 value of the well of medium background) / (OD450 value of the well showing maximum cell growth - OD450 value of the cell of medium background) × 100%.

[2] = test system: BxPC-3 human pancreatic adenocarcinoma cells; experiment: cells; assay type: cell-based; details: Homo sapiens, BXPC-3, 96 h, BxPC-3, killing 4 days
Experimental: as §1, §2, §3, §4

CC[C@@]1(O)C(=O)OCc2c1cc1n(c2=O)Cc2c-1nc1ccc(N)c3c1c2CCS3 [Compound 12]
EC50 [1]: 8.43 nM | EC50 [2]: 2.15 nM

CC[C@@]1(O)C(=O)OCc2c1cc1n(c2=O)Cc2c-1nc1ccc(N)c3c1c2C(F)(F)CO3 [Compound 31]
EC50 [1]: 8.59 nM | EC50 [2]: 4.42 nM

CC[C@@]1(O)C(=O)OCc2c1cc1n(c2=O)Cc2c-1nc1cc(F)c(N)c3c1c2C(F)(F)CO3 [Compound 19]
EC50 [1]: 0.864 nM | Maximum Killing (%) [1]: 93.5% | EC50 [2]: 1.4 nM

CC[C@@]1(O)C(=O)OCc2c1cc1n(c2=O)Cc2c-1nc1cc(F)c(N)c3c1c2CCS3 [Compound 26]
EC50 [1]: 1.02 nM | EC50 [2]: 1.11 nM

CC[C@@]1(O)C(=O)OCc2c1cc1n(c2=O)Cc2c-1nc1ccc(N)c3c1c2C1CC1C3 (stereo partly shown) [Compound 7]
EC50 [1]: 3.31 nM | EC50 [2]: 11.4 nM

CC[C@@]1(O)C(=O)OCc2c1cc1n(c2=O)Cc2c-1nc1cc(F)c(N)c3c1c2CCO3 [Compound 18]
EC50 [1]: 1.57 nM | EC50 [2]: 1.45 nM

CC[C@@]1(O)C(=O)OCc2c1cc1n(c2=O)Cc2c-1nc1ccc(N)c3c1c2CC[S@@+]3[O-] [Compound 14-P2]
EC50 [1]: 2000 nM

CC[C@@]1(O)C(=O)OCc2c1cc1n(c2=O)Cc2c-1nc1cc(F)c(N)c3c1c2C(F)(F)CS3 [Compound 27]
EC50 [1]: 1.75 nM | EC50 [2]: 1.52 nM

CC[C@@]1(O)C(=O)OCc2c1cc1n(c2=O)Cc2c-1nc1ccc(N)c3c1c2CCS3(=O)=O [Compound 15]
EC50 [1]: 178 nM | EC50 [2]: 79.6 nM

CC[C@@]1(O)C(=O)OCc2c1cc1n(c2=O)Cc2c-1nc1ccc(N)c3c1c2CC[S@+]3[O-] [Compound 14-P1]
EC50 [1]: 503 nM
